A word on the EC50: it is the concentration giving half of the maximal effect.

In ChEMBL document CHEMBL3217569, “N-(5-substituted thiazol-2-yl)-2-aryl-3-(tetrahydro-2H-pyran-4-yl) propanamides as glucokinase activators” (Medchemcomm, 2011) one finds EC50 data, which are given here for 20 compounds.

For this assay, the target named is T1, Hexokinase-4 (Homo sapiens, UniProt P35557).
T1 sequence (P35557 whole entry): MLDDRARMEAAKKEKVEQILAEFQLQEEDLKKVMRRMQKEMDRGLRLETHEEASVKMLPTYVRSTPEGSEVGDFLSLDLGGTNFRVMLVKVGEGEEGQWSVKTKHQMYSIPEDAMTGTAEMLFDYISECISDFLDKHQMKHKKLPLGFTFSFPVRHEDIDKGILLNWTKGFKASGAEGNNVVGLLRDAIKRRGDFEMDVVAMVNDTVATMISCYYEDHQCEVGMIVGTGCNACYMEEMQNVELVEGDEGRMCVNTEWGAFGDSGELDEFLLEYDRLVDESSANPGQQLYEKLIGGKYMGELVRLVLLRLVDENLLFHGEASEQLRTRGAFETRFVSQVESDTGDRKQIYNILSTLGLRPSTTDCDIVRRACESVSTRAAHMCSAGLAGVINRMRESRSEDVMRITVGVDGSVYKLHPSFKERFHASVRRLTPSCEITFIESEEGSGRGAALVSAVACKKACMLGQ
Kind of assay: Activation of recombinant human His6-tagged glucokinase by G6PDH-coupled spectrophotometry.

SMILES strings stand for the structures.

For `CN(C)C(=O)Cn1cc(-c2cnc(NC(=O)C(CC3CCOCC3)c3ccc(S(=O)(=O)C4CC4)cc3)s2)nn1` (racemic), the half-maximal effective concentration (EC50) came out at 300 nM.
Under `CC(C)C[C@H](NC(=O)c1cnc(NC(=O)C(CC2CCOCC2)c2ccc(S(=O)(=O)C3CC3)cc2)s1)C(=O)O` (mixture of isomers) stands greater than 20000 nM.
Turning to `O=C(Cn1cc(-c2cnc(NC(=O)C(CC3CCOCC3)c3ccc(S(=O)(=O)C4CC4)cc3)s2)nn1)NC1CC1` (racemic), the EC50 was greater than 20000 nM.
Consider `O=C(O)CCNC(=O)c1cnc(NC(=O)C(CC2CCOCC2)c2ccc(S(=O)(=O)C3CC3)cc2)s1` (racemic), for which the EC50 was 1800 nM.
Then `CCOC(=O)CCCn1cc(-c2cnc(NC(=O)C(CC3CCOCC3)c3ccc(S(=O)(=O)C4CC4)cc3)s2)nn1` (racemic), with 450 nM; and `COC(=O)CCNC(=O)c1cnc(NC(=O)C(CC2CCOCC2)c2ccc(S(=O)(=O)C3CC3)cc2)s1` (racemic), with 520 nM; and `CCN(CC)C(=O)Cn1cc(-c2cnc(NC(=O)C(CC3CCOCC3)c3ccc(S(=O)(=O)C4CC4)cc3)s2)nn1` (racemic), with 210 nM.
Under `O=C(Nc1ncc(-c2cn(CCOCc3ccccc3)nn2)s1)C(CC1CCOCC1)c1ccc(S(=O)(=O)C2CC2)cc1` (racemic) stands 290 nM; under `CN1CCN(C(=O)Cn2cc(-c3cnc(NC(=O)C(CC4CCOCC4)c4ccc(S(=O)(=O)C5CC5)cc4)s3)nn2)CC1` (racemic), 790 nM; under `O=C(Nc1ncc(-c2cn(CCO)nn2)s1)C(CC1CCOCC1)c1ccc(S(=O)(=O)C2CC2)cc1` (racemic), 180 nM.
Then `CC(C)[C@H](NC(=O)c1cnc(NC(=O)C(CC2CCOCC2)c2ccc(S(=O)(=O)C3CC3)cc2)s1)C(=O)O` (mixture of isomers), with 11300 nM.
On to `CNC(=O)Cn1cc(-c2cnc(NC(=O)C(CC3CCOCC3)c3ccc(S(=O)(=O)C4CC4)cc3)s2)nn1` (racemic), for which the EC50 was 170 nM.
Then `O=C(O)CCn1cc(-c2cnc(NC(=O)C(CC3CCOCC3)c3ccc(S(=O)(=O)C4CC4)cc3)s2)nn1` (racemic), with 1350 nM.
Then `COC(=O)[C@@H](NC(=O)c1cnc(NC(=O)C(CC2CCOCC2)c2ccc(S(=O)(=O)C3CC3)cc2)s1)C(C)C` (mixture of isomers), with 1440 nM; and `COC(=O)[C@H](CC(C)C)NC(=O)c1cnc(NC(=O)C(CC2CCOCC2)c2ccc(S(=O)(=O)C3CC3)cc2)s1` (mixture of isomers), with 1520 nM; and `O=C(Nc1ncc(-c2cn(CC(=O)N3CCOCC3)nn2)s1)C(CC1CCOCC1)c1ccc(S(=O)(=O)C2CC2)cc1` (racemic), with 640 nM.
For `CCOC(=O)CCn1cc(-c2cnc(NC(=O)C(CC3CCOCC3)c3ccc(S(=O)(=O)C4CC4)cc3)s2)nn1` (racemic), the EC50 was 350 nM.
Then `O=C(Nc1ncc(-c2cn(CCO)nn2)s1)[C@H](CC1CCOCC1)c1ccc(S(=O)(=O)C2CC2)cc1`, with 220 nM; and `CCNC(=O)Cn1cc(-c2cnc(NC(=O)C(CC3CCOCC3)c3ccc(S(=O)(=O)C4CC4)cc3)s2)nn1` (racemic), with greater than 20000 nM; and `CCOC(=O)Cn1cc(-c2cnc(NC(=O)C(CC3CCOCC3)c3ccc(S(=O)(=O)C4CC4)cc3)s2)nn1` (racemic), with 330 nM.
